The text below walks through data of patent US9198903B2, “Method of treating or preventing thrombosis in a patient with 5-HT2A receptor antagonist thromboserin” (Thromboserin Limited, priority 2007, dated 2015).

One data set deals with alpha-1 adrenergic. The conditions noted are these: cited from earlier work.
For data set [1] the following is noted: in the presence of hypokalaemia; cited from earlier work.
A short description of data set [2]: Skin bleeding time in randomised double blind cross-over study. In kind it is in vivo, human patients. The conditions noted are these: first 13 patients, drug 10 mg twice daily vs placebo cross-over courses. An excerpt: Objective: To evaluate whether inhibition platelets can be accompanied by no increase in bleeding time, by means of serotonin 5HT2A receptor antagonism. Study population: Patients with a history of intermittent claudication (IC) or coronary heart disease (CHD) recruited. There were 48 patients studied, all of whom were Caucasian, aged 69±6.6 years and of which 38 were male and 10 female. Patients with IC have clinical findings of peripheral vascular disease and an ABPI <0.9. Patients with CHD have chronic stable angina and angiographic evidence of coronary artery disease (stenosis of >70% in at least one major coronary artery). Study design: Randomised controlled double blind cross-over study: 2 weeks 5HT2A receptor antagonist (Thromboserin) (10 mg twice daily) or placebo, wash out period of 2 weeks and cross over to other arm for further two weeks. Side effects, and compliance documented in both groups. Skin bleeding time was performed, contra-laterally from venepuncture. A suitable area of forearm was shaved if necessary and cleaned with alcohol swab. A sphygmomanometer cuff was inflated on the upper arm to 40 mmHg. One incision was made with Surgicutt bleeding device ([…], Hertfordshire), and a stopwatch was started. […] The bleeding time was recorded to the nearest 30 seconds.

Data set [3] is described as follows: Clinical biochemistry (liver function tests, glucose, urea, creatinine, electrolytes) in cross-over study. The data set is classed as in vivo, human patients. To be noted: Thromboserin vs placebo. The method, then: (§1) Study design: Randomised controlled double blind cross-over study: 2 weeks 5HT2A receptor antagonist (Thromboserin) (10 mg twice daily) or placebo, wash out period of 2 weeks and cross over to other arm for further two weeks. Side effects, and compliance documented in both groups. Blood sampling/Assays: Blood samples obtained at baseline, 2 weeks (the end of phase 1), 4 weeks (the end of phase 2), at 6 weeks (the end of phase 3) and 2 weeks after the completion of the study. The following assays were obtained. • Full blood count, urea, electrolytes, creatinine, liver function tests and glucose • Blood levels of Thromboserin • Bleeding time • Surface expression of the platelet activation markers P-selectin and fibrinogen. These were measured using whole blood flow cytometry. Measurement after incubation with agonists such as ADP was also performed in order to assess the platelet responsiveness to stimuli. • Ultegra Rapid Platelet Function Assay (RPFA). Methods: Venepuncture: Clinical symptoms and signs were also recorded. The other observations were: routine full blood count by Clinical Haematology Laboratory, ARI, and U&Es, creatinine, Liver Function tests and blood glucose by Clinical Biochemistry Laboratory, ARI.

The subject of the next data set is platelets. The data set is described as follows: Platelet count (full blood count) in cross-over study. In kind it is in vivo, human patients. The method, then:
as §1, with “Venepuncture: Venous blood was collected into vacutainers by clean venepuncture with 19G butterfly and adaptor, using tourniquet to locate the vein only. The first 5 mL of blood was used for full blood count, and subsequent samples collected in order for the platelet tests and others.” for “Venepuncture:”

Each structure is given as a SMILES string.

Turning to `O=C(c1ccc(F)cc1)C1CCN(CCn2c(=O)[nH]c3ccccc3c2=O)CC1` [Ketanserin], the “Alpha-1 adrenergic activity (in words)” value in the data set with alpha-1 adrenergic was “alpha-1 adrenergic antagonistic properties”. Further, the “Pro-arrhythmic properties (in words)” value in data set [1] is reported as “pro-arrhythmic properties”.
`CN(C)C(C)(C)CSc1nc2ccccc2cc1-c1ccccc1.Cl` [Thromboserin]: the “Change of bleeding time (in words)” value in data set [2] was “no significant rise in bleeding time”. Moreover, in data set [3] (Wilcoxon), the “Probability of no Difference: Alanine amino transferase” value is on record as 0.0021; the “Probability of no Difference: Gamma GT” value is listed as 0.0216; the “Probability of no Difference: Gamma GT, In patients with abnormal values” is listed as 0.0266. Besides, in data set [3] (paired t test), the “Probability of no Difference: Alkaline phosphatase” value stood at 0.0034. Moreover, in the data set on platelets (Thromboserin 10 mg twice daily 2 weeks vs placebo, Wilcoxon), the “Probability of no Difference: Platelet count” value amounted to 0.0416. The “Probability of no Difference: Platelet count over 6 weeks” value with platelets (Thromboserin vs placebo, Repeated measures ANOVA) was found to be 0.0233. In addition, in the data set with platelets (Thromboserin vs placebo, Wilcoxon), the “Probability of no Difference: Platelets, excluding 4 patients With abnormal count” value was 0.0214.
